{"source": "paper PMC5352362", "about": "“Molecular and functional evaluation of a novel HIF inhibitor, benzopyranyl 1,2,3-triazole compound” (Oncotarget, 2016)", "key": {"[1]": {"system": "HIF-1α target genes (VEGF, ALDOC, CA9, GLUT1, CXCR4)", "assay": "Semiquantitative RT-PCR of HIF-1α target genes in A549 cells", "type": "cell-based, human", "settings": "1–100 nM, 16 h, hypoxia", "description": "As HIF-1α regulates transcription of its target genes, which are involved in angiogenesis, glucose metabolism, and metastasis in tumor progression, we determined the effects of Compound 12 on HIF-1 target gene expression at the mRNA level by semiquantitative RT-PCR. […] Thus, we checked secreted VEGF protein levels in culture media via ELISA.\nFigure 5 Compound 12 suppressed HIF-1α target gene expression, and confirmation of in vitro results via determination of effects on angiogenesis in vivo (A) A549 cells were treated with Compound 12 (at concentrations of 0 nM, 1 nM, 10 nM, and 100 nM) for 16 h. The mRNA levels of HIF-1α target genes were determined by semiquantitative RT-PCR. β-actin was used as an internal control. D. DMSO vehicle control. N, normoxia; H, hypoxia. […] Media supernatant was collected, and secreted VEGF was determined by ELISA after removal of cellular debris. […] Cells that migrated through the membrane (8 μm pore size) were stained with hematoxylin and eosin, pictured as shown in upper panel, and counted (graph). *P < 0.05, **P < 0.01 versus VEGF-treated control. […] (F) Compound 12 (0.1 μg and 1 μg dosages) and retinoic acid (RA, positive control) were applied to the ED 4.5 CAM for two days, neovessel formation from the large vessels was observed, and percentages of positive angiogenic eggs (from total eggs tested) were calculated. […]"}, "HUVECs": {"system": "HUVECs", "assay": "Transwell cell migration assay, VEGF-induced", "type": "cell-based, human", "settings": "VEGF 20 ng/mL, 24 h", "experimental": "Figure 5 Compound 12 suppressed HIF-1α target gene expression, and confirmation of in vitro results via determination of effects on angiogenesis in vivo (A) A549 cells were treated with Compound 12 (at concentrations of 0 nM, 1 nM, 10 nM, and 100 nM) for 16 h. The mRNA levels of HIF-1α target genes were determined by semiquantitative RT-PCR. β-actin was used as an internal control. D. DMSO vehicle control. N, normoxia; H, hypoxia. (B) A549 cells were treated with serum-reduced culture media containing Compound 12 (at concentrations of 0 nM, 10 nM, and 100 nM) for 16 h. Media supernatant was collected, and secreted VEGF was determined by ELISA after removal of cellular debris. N, normoxia; H, hypoxia. **P < 0.01 versus hypoxia (H) DMSO (D)-treated control. (C) HUVECs were treated with Compound 12, at the indicated concentrations, in the presence of VEGF (20 ng/mL) for 24 h in 1% serum-containing media. […] Cells that migrated through the membrane (8 μm pore size) were stained with hematoxylin and eosin, pictured as shown in upper panel, and counted (graph). *P < 0.05, **P < 0.01 versus VEGF-treated control. […] (F) Compound 12 (0.1 μg and 1 μg dosages) and retinoic acid (RA, positive control) were applied to the ED 4.5 CAM for two days, neovessel formation from the large vessels was observed, and percentages of positive angiogenic eggs (from total eggs tested) were calculated. […]"}}}
{"compound": "COc1ccc(-c2cn(CC3(C)C=Cc4cc([N+](=O)[O-])ccc4O3)nn2)cc1", "note": "(centres unmarked) [Compound 12, 4-(4-methoxyphenyl)-1-((2-methyl-6-nitro-2H-chromen-2-yl)methyl)-1H-1,2,3-triazole]", "values": [{"measurement": "mRNA levels of VEGF, ALDOC, CA9, GLUT1 and CXCR4", "setting": "[1]", "result": "suppressed the mRNA levels"}, {"measurement": "VEGF-induced endothelial migration", "setting": "HUVECs", "result": "significantly inhibited"}]}
